# Read-outs that look alike come from different tables or passages of the source.
# How the values were obtained:
# [1] = system: microsomal lipid peroxidation; set-up: method as in PMID 16822206; details: cited from earlier work
# [2] = system: PEO1 ovarian cancer cells; experiment: Cytotoxicity (Neutral Red), PEO1 cells; format: cell-based, human; details: for IC50: Homo sapiens, read-out: IC50 PEO1
# Procedure: (§1) The PEO1 cells, SKOV-3 cells, and MRC-5 cells were grown at 37 °C and 5% CO2 in RPMI + GlutaMAX medium, McCoy’s 5A medium, and the DMEM + GlutaMAX medium, respectively. The media were supplemented with 10% heat-inactivated fetal calf serum and penicillin/streptomycin. The cell viability was evaluated using the Trypan Blue exclusion test.
# (§2) In the cytotoxicity experiments, cells were grown in wells of sterile 96-well plates. The seeding density was 1 × 10^4 for SKOV-3 and MRC-5 cells and 1.5 × 10^4 for PEO1 cells. The cells were allowed to grow in the incubator for 24 h. Then, the medium was removed and new medium with an examined compound was added. The stock solutions of the compounds studied diluted with the appropriate cell medium were filtered before the addition to the cells using 0.22 µm filters. No more than 0.02% of DMSO was present in the media, and it had no discernible impact on the treated cells. Cells not exposed to any compound served as a control. After another 24 h incubation, the medium was gently aspirated, and the wells were added with 2% sterile Neutral Red solution (100 µL). The plates were then incubated (37 °C, 5% CO2) for one hour. The Neutral Red solution was aspirated, and the wells were washed two times with warm (37 °C) PBS. Subsequently, 100 µL of a permeabilization mixture (water/ethanol/glacial acetic acid, 50/49/1, v/v/v) was introduced to each well. The plates were shaken at 700 rpm for 20 min and absorbance was read at a wavelength of 540 nm against 620 nm.
# [3] = system: lung cancer A549 cells; set-up: method as in PMID 16024053; details: 200 μM, 24 h exposure; cited from earlier work
# [4] = system: lung epithelial BEAS-2B cells; set-up: method as in earlier work; details: 1.5 mM, 24 h exposure; cited from earlier work
# [5] = system: breast cancer MCF-7 cells; set-up: method as in PMID 18817629; details: 24 h exposure; read-out: Concentration decreasing viability of MCF-7 cells to about 50%; cited from earlier work
# [6] = ABTS^● decolorization assay; details: 30 min incubation at room temperature, absorbance at 734 nm
# Procedure: A modification of the ABTS^● decolorization assay was employed. Briefly, various volumes of solutions of the studied compounds were introduced to wells of a 96-well microplate, each prefilled 200 μL of ABTS^● solution. […] The drop in absorbance after 30 min incubation at room temperature was read as a measure of the antioxidant activity.
# (§3) All assays were standardized with respect to Trolox. The antioxidant activity was calculated in each case as a ratio of the slope of the dependence of absorbance change on the concentration of a studied compound to the slope of the dependence of absorbance change of standard samples concerning Trolox on the concentration of Trolox. Antioxidant activities were expressed in moles of Trolox equivalents (TE)/mol of a studied compound, as described previously.
# [7] = DPPH^● decolorization assay; details: 30 min at ambient temperature in the dark, absorbance at 517 nm
# Procedure: The assay was performed as described in a previous article. Briefly, increasing volumes of solutions of the studied compounds were introduced to wells of a 96-well microplate, each with 200 μL of 0.3 mM DPPH^● solution in methanol. The reaction was allowed to proceed for 30 min at ambient temperature in the dark, and absorbance at 517 nm was read. The absorbance decrease was a measure of the antioxidant activity.
# as §3
# [8] = system: prostatic carcinoma LNCaP cells; set-up: method as in PMID 16142693; details: 100 μM, 24 h exposure; cited from earlier work
# [9] = system: cervical epidermoid carcinoma Ca Ski cells; set-up: method as in PMID 19035312; details: 24 h exposure; read-out: Concentration decreasing viability of Ca Ski cells to about 50%; cited from earlier work
# [10] = system: colorectal cancer HCT-116 cells; set-up: method as in PMID 19202565; details: 400 μM, 24 h exposure; cited from earlier work
# [11] = system: MDA-MB-468 cells; set-up: method as in earlier work; details: 1.5 mM, 24 h exposure; cited from earlier work
# [12] = Ferric reducing antioxidant power (FRAP) assay; details: 30 min at ambient temperature, pH 3.6, absorbance at 593 nm
# Procedure: The method proposed by Benzie and Strain [91] was employed with a slight modification. Briefly, increasing volumes of solutions of the studied compounds were added to wells of a 96-well microplate prefilled with 200 μL of the working solution composed of 0.3 M acetate buffer, pH 3.6 (10 volumes), 10 mM 2,4,6-tris(2-pyridyl)-s-triazine (TPTZ), in 40 mM HCl (1 volume) and 20 mM FeCl3 (1 volume), was prepared immediately before use. After 30 min incubation at ambient temperature and the absorbance of the Fe^2+-TPTZ complex was read at 593 nm.
# as §3
# [13] = system: MRC-5 fibroblasts; experiment: Cytotoxicity (Neutral Red), MRC-5 fibroblasts; format: cell-based, human; details: for Concentration at which viability of MRC-5 cells was lowered: p < 0.05; for IC50: read-out: IC50 MRC-5
# Procedure: as §1, §2
# [14] = system: breast cancer HCC-70 cells; set-up: method as in PMID 32286702; details: 1 mM, 24 h exposure; cited from earlier work
# [15] = system: breast cancer MCF-7 cells; set-up: method as in PMID 32286702; details: 1 mM, 24 h exposure; cited from earlier work
# [16] = system: neuroblastoma N2a cells; set-up: method as in PMID 24760364; details: after 24 h; read-out: Concentration decreasing proliferation of N2a cells by 50%; cited from earlier work
# [17] = system: colon carcinoma HT-29 cells; set-up: method as in PMID 24282361; details: after 48 h exposure; read-out: Concentration decreasing proliferation of HT-29 cells by 50%; cited from earlier work
# [18] = system: SKOV-3 ovarian cancer cells; experiment: Cytotoxicity (Neutral Red), SKOV-3 cells; format: cell-based, human; details: 24 h exposure; for Concentration at which viability of SKOV-3 cells was lowered: p < 0.05; for IC50: Homo sapiens, SK-OV-3, Neutral Red, read-out: IC50 SKOV-3
# Procedure: as §1, §2
# [19] = system: A375 melanocytes; set-up: method as in PMID 33178586; details: read-out: Concentration decreasing proliferation of A375 melanocytes by 50%; cited from earlier work
# [20] = system: B16 melanocytes; set-up: method as in PMID 33178586; details: read-out: Concentration decreasing proliferation of B16 melanocytes by 50%; cited from earlier work
# [21] = system: colorectal carcinoma HCT-15 cells; set-up: method as in PMID 24282361; details: after 48 h exposure; read-out: Concentration decreasing proliferation of HCT-15 cells by 50%; cited from earlier work
# [22] = system: SKOV-3 cells; set-up: method as in PMID 16675472; details: cited from earlier work
# [23] = system: A2780 human ovarian carcinoma cells; set-up: method as in PMID 24362328; details: prolonged treatment; cited from earlier work
# [24] = PEO1, 24 h exposure, Neutral Red
# [25] = Homo sapiens, MRC5, 24 h exposure, Neutral Red
molecule,measurement,setting,value
"C=CCSSCC=C [Diallyl disulfide, diallyl disulfide]",Termination of lipid peroxidation / prevention of induced microsomal lipid peroxidation,[1],efficient lipid peroxidation terminator
same,IC50,"[2]; PEO1, 24 h",265 µM
same,Reduction of survival of A549 cells,[3],about 20%
same,Viability of BEAS-2B cells (reduced to),[4],about 75%
same,IC50,[5],400 µM
same,"Antioxidant activity, ABTS^● Decolorization",[6],0.013 ± 0.006 mol Trolox equivalents (TE)/mol compound
same,"Antioxidant activity, DPPH^● Decolorization",[7],0.049 ± 0.014 mol Trolox equivalents (TE)/mol compound
same,Reduction of survival of LNCaP cells,[8],about 30%
same,IC50,[9],~25 µM
same,Survival of HCT-116 cells (decreased to),[10],ca. 80%
same,Viability of MDA-MB-468 cells (reduced to),[11],about 65%
same,"Antioxidant activity, FRAP",[12],0.0025 ± 0.0011 mol Trolox equivalents (TE)/mol compound
same,Concentration at which viability of MRC-5 cells was lowered,[13]; 24 h exposure,300 µM
same,IC50,"[13]; Homo sapiens, MRC5, 24 h",268 µM
alliin,Termination of lipid peroxidation / prevention of induced microsomal lipid peroxidation,[1],ineffective
same,Viability of HCC-70 cells (decreased down to),[14],ca. 85%
same,Viability of MCF-7 cells (decreased down to),[15],ca. 75%
same,"Antioxidant activity, ABTS^● Decolorization",[6],0.035 ± 0.012 mol Trolox equivalents (TE)/mol compound
same,"Antioxidant activity, DPPH^● Decolorization",[7],0.004 ± 0.001 mol Trolox equivalents (TE)/mol compound
same,"Antioxidant activity, FRAP",[12],0.0006 ± 0.0007 mol Trolox equivalents (TE)/mol compound
same,IC50,"[13]; 24 h exposure, Neutral Red",321 µM
O=C(O)/C=C/c1ccc(O)cc1 [Coumaric acid],IC50,[16],104 µM
same,IC50,[17],1400 µM
same,Concentration range with no significant decrease in viability of PEO1 cells,[2]; 24 h exposure,0 to 1000 µM
same,IC50,[2]; [24],1430 µM
same,Concentration range with no significant decrease in viability of SKOV-3 cells,[18],0 to 1000 µM
same,IC50,[19],2500 µM
same,IC50,[20],2800 µM
same,IC50,[21],1600 µM
same,"Antioxidant activity, ABTS^● Decolorization",[6],0.585 ± 0.082 mol Trolox equivalents (TE)/mol compound
same,"Antioxidant activity, DPPH^● Decolorization",[7],0.076 ± 0.005 mol Trolox equivalents (TE)/mol compound
same,"Antioxidant activity, FRAP",[12],0.153 ± 0.003 mol Trolox equivalents (TE)/mol compound
same,Concentration range with no significant decrease in viability of MRC-5 cells,[13]; 24 h exposure,0 to 1000 µM
C=CCSCC=C [Allyl sulfide],Concentration range with no significant decrease in viability of PEO1 cells,[2]; 24 h exposure,up to 100 µM
same,IC50,[2]; [24],257 µM
same,Concentration range with no significant decrease in viability of SKOV-3 cells,[18],up to 100 µM
same,Concentration at which viability of SKOV-3 cells was lowered,[18],200 to 500 µM
same,IC50,[18],243 µM
same,"Antioxidant activity, ABTS^● Decolorization",[6],0.016 ± 0.010 mol Trolox equivalents (TE)/mol compound
same,"Antioxidant activity, DPPH^● Decolorization",[7],−0.006 ± 0.011 mol Trolox equivalents (TE)/mol compound
same,"Antioxidant activity, FRAP",[12],0.0026 ± 0.0010 mol Trolox equivalents (TE)/mol compound
same,Concentration range with no significant decrease in viability of MRC-5 cells,[13]; 24 h exposure,up to 100 µM
same,Concentration at which viability of MRC-5 cells was lowered,[13]; 24 h exposure,200 to 500 µM
same,IC50,[13]; [25],163 µM
C=CCSCC(N)C(=O)O (stereo in doubt) [S-Allyl-D-cysteine],IC50,[18],421 µM
same,"Antioxidant activity, ABTS^● Decolorization",[6],0.070 ± 0.059 mol Trolox equivalents (TE)/mol compound
same,"Antioxidant activity, DPPH^● Decolorization",[7],−0.020 ± 0.004 mol Trolox equivalents (TE)/mol compound
same,"Antioxidant activity, FRAP",[12],0.0003 ± 0.0002 mol Trolox equivalents (TE)/mol compound
same,IC50,[13]; [25],578 µM
"C=CCSC[C@H](N)C(=O)O [SAC, S-allylcysteine]",Termination of lipid peroxidation / prevention of induced microsomal lipid peroxidation,[1],ineffective
same,Migration of SKOV-3 cells and their invasiveness,[22],inhibited
same,Apoptosis of A2780 cells,[23],provoked apoptosis
same,Migration and invasiveness of A2780 cells,[23],attenuated
same,Proliferation of A2780 cells,[23],inhibited proliferation
"C=CCSSSCC=C [Diallyl trisulfide, diallyl trisulfide]",Concentration at which viability of PEO1 cells was lowered,"[2]; 24 h exposure, p < 0.05",50 µM
same,IC50,[2]; [24],721 µM
same,Concentration at which viability of SKOV-3 cells was lowered,[18],50 µM
same,IC50,[18],154 µM
same,"Antioxidant activity, ABTS^● Decolorization",[6],0.030 ± 0.006 mol Trolox equivalents (TE)/mol compound
same,"Antioxidant activity, DPPH^● Decolorization",[7],0.005 ± 0.0003 mol Trolox equivalents (TE)/mol compound
same,"Antioxidant activity, FRAP",[12],0.0022 ± 0.0004 mol Trolox equivalents (TE)/mol compound
same,Concentration range with no significant decrease in viability of MRC-5 cells,[13]; 24 h exposure,0 to 50 µM
